# Measured values reported in patent publication US12466821B2 (Novartis AG, priority 2018, dated 2025).
# Test system: VZV Ellen strain
# Assay: VZV qPCR assay (cellular herpesvirus replication)
# Assay type: cell-based
# Settings: Human alphaherpesvirus 3, MRC5, 48 h; MRC-5 cells, qPCR after two days; n>3, value (+/- spread)
# Method: For all viral assays, 10 mM DMSO stock compound solutions were serially diluted in DMSO at 3.16 fold dilutions in 96-well clear round bottom plates. Compounds were then diluted in assay media at 1:20 and subsequently 10 μL of these dilutions were added to cells for final compound concentrations ranging either from 0.0159 μM to 50 μM in 0.5% DMSO/assay media, or from 0.00318 to 10 μM in 0.5% DMSO/assay media.
# VZV qPCR assay: The assay uses co-infection with VZV Ellen strain-infected MRC-5 cells (ATCC cat #VR-1367). Viral replication in the presence or absence of compounds was measured by qPCR according to the following procedure: 12,000 uninfected MRC-5 cells were mixed with VZV-infected MRC-5 cells at a ratio of 1 to 10 infected to uninfected cells, in 96-well white-wall clear bottom plates in 90 μL/well of assay media: 4% FBS in EMEM (ATCC cat #30-2003). […] The chosen ratio of infected to uninfected cells gave approximately 3% VZV-positive cells at 6 hours post co-culturing, as detected by immunofluorescent staining of VZV Immediate Early 62 gene. […]
# qPCR reactions were carried out in a total reaction volume of 20 μL, using the QuantiFast® Multiplex PCR kit (Qiagen cat #204656). […]
# Relative quantification was calculated with the ΔΔCT Method, and then converted into percent inhibitions. […] EC50 values were calculated using XLFit Dose Response One Site Model 205.
structure (smiles),measurement,value
"N#Cc1ccc(CNC(=O)c2ccc3n(c2=O)CCN(CC2(S(=O)(=O)C4CC4)CC2)C3=O)cc1 [Example 1, N-(4-cyanobenzyl)-2-((1-(cyclopropylsulfonyl)cyclopropyl)methyl)-1,6-dioxo-2,3,4,6-tetrahydro-1H-pyrido[1,2-a]pyrazine-7-carboxamide]",EC50,20 nM
